Columns and labels:
Experiment in all cases: coupled HPLC assay with pea UDP-sugar pyrophosphorylase
DrGKUP = target: T1, DrGKUP (Danio rerio, UniProt F6NZ60); type: biochemical; conditions: UTP, 4 mM MgCl2, 50 mM MOPS-KOH pH 7.5, 35°C
T1 construct: gene gkup; full length, 619 residues, about 70 kDa; StrepII-tag, made in Nicotiana benthamiana leaves
T1 sequence (F6NZ60 1-619): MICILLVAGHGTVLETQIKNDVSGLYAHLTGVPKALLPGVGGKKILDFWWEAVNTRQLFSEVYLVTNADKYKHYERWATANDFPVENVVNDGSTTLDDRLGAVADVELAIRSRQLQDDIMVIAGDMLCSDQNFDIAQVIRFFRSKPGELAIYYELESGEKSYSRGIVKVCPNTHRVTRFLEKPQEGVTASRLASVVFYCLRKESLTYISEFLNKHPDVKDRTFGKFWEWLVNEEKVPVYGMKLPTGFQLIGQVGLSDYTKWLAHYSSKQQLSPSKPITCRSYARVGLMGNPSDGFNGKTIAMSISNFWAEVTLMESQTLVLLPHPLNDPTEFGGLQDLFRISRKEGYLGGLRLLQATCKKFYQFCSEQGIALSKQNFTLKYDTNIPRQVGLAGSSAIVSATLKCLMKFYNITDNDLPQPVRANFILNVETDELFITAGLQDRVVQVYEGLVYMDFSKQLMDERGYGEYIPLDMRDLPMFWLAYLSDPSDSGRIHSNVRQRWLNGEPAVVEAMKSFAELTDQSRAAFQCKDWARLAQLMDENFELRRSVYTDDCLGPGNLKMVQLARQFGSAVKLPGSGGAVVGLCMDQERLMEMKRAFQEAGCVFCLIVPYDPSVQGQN

XtGKUP = target: T2, XtGKUP (Xenopus tropicalis, UniProt A0A6I8PZF0); type: biochemical; conditions: ATP, UTP, 4 mM MgCl2, 50 mM MOPS-KOH pH 7.5, 35°C
T2 construct: gene XB5896631; bifunctional enzyme cloned from tadpole first-strand cDNA; StrepII-tag, made in Nicotiana benthamiana leaves
T2 sequence (A0A6I8PZF0 1-619): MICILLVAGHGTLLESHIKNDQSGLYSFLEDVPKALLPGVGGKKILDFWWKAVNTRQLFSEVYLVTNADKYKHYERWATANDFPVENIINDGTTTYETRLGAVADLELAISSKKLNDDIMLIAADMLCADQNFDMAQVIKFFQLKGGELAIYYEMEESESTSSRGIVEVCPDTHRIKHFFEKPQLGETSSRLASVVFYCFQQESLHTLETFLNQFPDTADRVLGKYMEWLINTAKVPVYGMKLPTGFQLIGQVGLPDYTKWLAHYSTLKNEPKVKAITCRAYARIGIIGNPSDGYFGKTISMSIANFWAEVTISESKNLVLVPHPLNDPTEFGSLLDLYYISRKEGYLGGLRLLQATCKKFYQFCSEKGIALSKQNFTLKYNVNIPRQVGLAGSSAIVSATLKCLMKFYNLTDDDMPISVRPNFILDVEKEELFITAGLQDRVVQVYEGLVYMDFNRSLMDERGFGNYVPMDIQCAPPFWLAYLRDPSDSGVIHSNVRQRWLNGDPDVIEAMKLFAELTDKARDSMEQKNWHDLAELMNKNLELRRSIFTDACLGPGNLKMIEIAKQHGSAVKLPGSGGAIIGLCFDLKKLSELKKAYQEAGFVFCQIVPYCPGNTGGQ

[1] = substrate: Nc1ncnc2c1ncn2[C@@H]1O[C@H](COP(=O)(O)OP(=O)(O)OP(=O)(O)O)[C@@H](O)[C@H]1O; type: biochemical, Danio rerio; conditions: GlcA and UTP, 4 mM MgCl2, 50 mM MOPS-KOH pH 7.5, 35°C, ATP 0.01-1.4 mM
Excerpt: coupled HPLC assay with pea UDP-sugar pyrophosphorylase on DrGK

Nc1ncnc2c1ncn2[C@@H]1O[C@H](COP(=O)(O)OP(=O)(O)OP(=O)(O)O)[C@@H](O)[C@H]1O [ATP]
coupled HPLC assay with pea UDP-sugar pyrophosphorylase (DrGKUP; GlcA): The product is dependent on the presence of ATP, UTP and GlcA

O=C(O)[C@H]1OC(O)[C@H](O)[C@@H](O)[C@@H]1O (stereo partly drawn) [D-glucuronic acid]
coupled HPLC assay with pea UDP-sugar pyrophosphorylase (DrGKUP; ATP): The recombinant full length DrGKUP as well as the DrGK alone catalyzes the phosphorylation of GlcA
coupled HPLC assay with pea UDP-sugar pyrophosphorylase (XtGKUP): we can confirm the glucuronokinase activity for the Xenopus enzyme

B1: DrGK (Danio rerio) (protein)
chain: AHYSSKQQLSPSKPITCRSYARVGLMGNPSDGFNGKTIAMSISNFWAEVTLMESQTLVLLPHPLNDPTEFGGLQDLFRISRKEGYLGGLRLLQATCKKFYQFCSEQGIALSKQNFTLKYDTNIPRQVGLAGSSAIVSATLKCLMKFYNITDNDLPQPVRANFILNVETDELFITAGLQDRVVQVYEGLVYMDFSKQLMDERGYGEYIPLDMRDLPMFWLAYLSDPSDSGRIHSNVRQRWLNGEPAVVEAMKSFAELTDQSRAAFQCKDWARLAQLMDENFELRRSVYTDDCLGPGNLKMVQLARQFGSAVKLPGSGGAVVGLCMDQERLMEMKRAFQEAGCVFCLIVPYDPSVQGQN
notes: C-terminal glucuronokinase (GHMP kinase) domain only, 357 residues, 40 kDa, of the 619-residue DrGKUP (N-terminal ~260-residue pyrophosphorylase domain removed); StrepII-tag; made in Nicotiana benthamiana leaves
Km [1]: 59.3 ± 9.1 µM
kcat [1]: 1.3 s⁻¹

— PMC3938481, “Molecular Cloning of a Novel Glucuronokinase/Putative Pyrophosphorylase from Zebrafish Acting in an UDP-Glucuronic Acid Salvage Pathway” (PLoS ONE, 2014)
